The values below come from patent publication EP0869800B1, “ACYLGLYCINE- AND ZINC SALT-BASED ANTIBACTERIAL COMPOUND” (PIERRE FABRE DERMO-COSMETIQUE, priority 1995, dated 1997).

Test [1] deals with Staphylococcus aureus 6538 P. The experiment in a line: Minimal inhibitory concentration (CMI), serial half dilutions in broth on microplate. Type of test: cell-based. As to conditions: product alone; 24 h at 32°C; 10^6 germes par ml. The method, then:
• . souche: Staphylococcus aureus 6538 P • milieu de culture : • . bouillon et gélose trypticase soja (Biomérieux) • . bouillon Trypticase soja + 10% Tween 80. • appareillage : • . microplaques stériles Nunc R Nunclon à 96 puits • . eau distillée stérile • . tubes à essais stériles • . étuve à 32°C (Jouan) • . spectrophotomètre PRIM et cuves adaptées • . billes de verres stériles • produits : Les solutions-mères des produits cités ci-dessous ont été préparés comme suit : • . Zn SO 4: solution aqueuse à 5% • . n-octanoyl-glycine : solution à 1% dans 30% butylène glycol puis chauffage jusqu'à dissolution homogène. • méthodes : • CMI : Concentration Minimale Inhibitrice Une distribution de 100 µl de bouillon Trypticase soja est réalisée dans chaque cupule de la microplaque stérile A. Une distribution de 100 µl des différents produits a lieu dans une cupule (on est alors à 50% d'actif) (une cupule par produit). Une série de dilutions sériées au demi est ensuite réalisée sur microplaque. Un témoin stérilité du milieu et un autre témoin de la vigueur de la souche sont réalisés en parallèle sur la microplaque. […]

The subject of test [2] is Staphylococcus aureus 6538 P. The experiment in a line: Study of the association by the checkerboard method on microplate (CMI in association, FiC, FiC Index). It is filed as cell-based. As to conditions: for FiC: CMI of the product in association / CMI of the product alone. The protocol: • . souche: Staphylococcus aureus 6538 P • milieu de culture : • . bouillon et gélose trypticase soja (Biomérieux) • . bouillon Trypticase soja + 10% Tween 80. • appareillage : • . microplaques stériles Nunc R Nunclon à 96 puits • . eau distillée stérile • . tubes à essais stériles • . étuve à 32°C (Jouan) • . spectrophotomètre PRIM et cuves adaptées • . billes de verres stériles • produits : Les solutions-mères des produits cités ci-dessous ont été préparés comme suit : • . Zn SO 4: solution aqueuse à 5% • . n-octanoyl-glycine : solution à 1% dans 30% butylène glycol puis chauffage jusqu'à dissolution homogène. • méthodes : • CMI : Concentration Minimale Inhibitrice Une distribution de 100 µl de bouillon Trypticase soja est réalisée dans chaque cupule de la microplaque stérile A. Une distribution de 100 µl des différents produits a lieu dans une cupule (on est alors à 50% d'actif) (une cupule par produit). Une série de dilutions sériées au demi est ensuite réalisée sur microplaque. Un témoin stérilité du milieu et un autre témoin de la vigueur de la souche sont réalisés en parallèle sur la microplaque. L'ensemencement de la microplaque (A) a lieu sous la hotte après préparation de l'inoculum bactérien comme suit : Les souches ayant été préalablement repiquées la veille sur gélose Trypticase soja, un inoculum 10^8 germes/ml est dispersé dans l'eau distillée stérile puis agité au vortex. Les billes de verre assurant une bonne dispersion des souches, la mesure de la densité optique permet de préparer un inoculum adéquat par rapport à un étalonnage pré-établi et validé. La répartition de la souche a lieu dans une deuxième microplaque (B) stérile par distribution de 100 µl d'inoculum par microcupule. L'ensemencement a lieu par un repiquage de la microplaque (B) vers la microplaque (A), il se réalise ainsi une dilution au 1/100 de l'inoculum : la microplaque A contenant alors 10^6 germes par ml, peut être mise à l'étuve 24 h à 32°C. […]

`O=S(=O)([O-])[O-].[Zn+2]` [Zn SO 4, sulfate de zinc]: the “CMI Seuls” value in test [1] is on record as 0,15. In test [2], the FiC is reported as 0,20. The “CMI Associés” value in test [2] (product in association (checkerboard), incubation at 32°C) is on record as 0,03.
Take `CCCCCCCC(=O)NCC(=O)O` [n octanoyl glycine, n-octanoyl-glycine]: the “CMI Seuls” value in test [1] is on record as 0,25. Further, the FiC in test [2] was 0,5.
